The text below walks through data of patent US8471005B2 (Cephalon, Inc., priority 2008, dated 2013).

Where two headings read alike, the source gives them in different places.

For one assay, the target named is T1, ALK (Homo sapiens, UniProt Q9UM73).
T1 construct: host or cells: baculovirus expression system
Nature of the assay: ALK Kinase Assay (ELISA/TRF, PLC-γ substrate). It counts as biochemical. The following applies: read-out: ALK Potency. The gist of the method:
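IC50 values derive from percent inhibition plotted against log10 compound concentration and fitted to a variable-slope sigmoidal equation. The underlying reaction used 30 ng/ml ALK acting on immobilized PLC-γ (10 μg/mL in TBS) at 37° C for 15 minutes, read with Eu-N1 PT66 antibody.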
In general terms: In an ELISA, binding on a coated surface is turned into a signal by an enzyme label.

For another assay, the target named is T2, JAK2 (Homo sapiens, UniProt O60674).
T2 construct: host or cells: baculovirus expression system
T2 sequence (O60674 whole entry): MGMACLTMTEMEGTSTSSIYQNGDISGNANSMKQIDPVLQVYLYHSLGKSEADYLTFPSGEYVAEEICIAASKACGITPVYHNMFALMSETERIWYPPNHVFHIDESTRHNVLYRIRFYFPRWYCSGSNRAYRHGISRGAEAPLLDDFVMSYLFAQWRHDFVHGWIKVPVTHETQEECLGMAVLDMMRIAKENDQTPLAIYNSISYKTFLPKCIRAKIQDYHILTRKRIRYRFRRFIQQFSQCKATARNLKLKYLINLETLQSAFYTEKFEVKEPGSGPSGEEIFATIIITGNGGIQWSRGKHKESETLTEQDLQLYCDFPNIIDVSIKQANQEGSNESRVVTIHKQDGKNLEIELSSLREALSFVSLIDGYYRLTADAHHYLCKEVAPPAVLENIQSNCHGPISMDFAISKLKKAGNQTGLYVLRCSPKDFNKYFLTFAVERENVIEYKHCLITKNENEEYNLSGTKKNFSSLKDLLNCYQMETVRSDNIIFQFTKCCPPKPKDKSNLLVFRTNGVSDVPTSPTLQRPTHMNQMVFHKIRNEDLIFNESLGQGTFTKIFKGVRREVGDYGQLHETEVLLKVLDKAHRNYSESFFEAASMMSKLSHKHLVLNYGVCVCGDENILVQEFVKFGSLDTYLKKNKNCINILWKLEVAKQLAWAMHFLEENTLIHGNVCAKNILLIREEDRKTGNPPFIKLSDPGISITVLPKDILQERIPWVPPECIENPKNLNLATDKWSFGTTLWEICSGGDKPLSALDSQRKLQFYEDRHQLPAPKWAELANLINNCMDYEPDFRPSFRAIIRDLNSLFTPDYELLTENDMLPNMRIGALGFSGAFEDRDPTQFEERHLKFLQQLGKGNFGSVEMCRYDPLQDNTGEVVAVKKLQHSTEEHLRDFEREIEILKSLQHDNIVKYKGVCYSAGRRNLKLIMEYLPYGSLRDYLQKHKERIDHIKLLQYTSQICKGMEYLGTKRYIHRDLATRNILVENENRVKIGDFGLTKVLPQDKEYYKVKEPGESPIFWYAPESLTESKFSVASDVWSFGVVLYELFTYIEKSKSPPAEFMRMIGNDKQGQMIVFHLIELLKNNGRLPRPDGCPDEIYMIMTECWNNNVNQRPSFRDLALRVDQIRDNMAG
Put plainly: Recombinant Human JAK2 Kinase Assay (TRF). It counts as biochemical. Conditions: read-out: JAK2 Potency. The method in brief: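 Baculovirus-expressed JAK2 (15 ng/ml) phosphorylated a biotinylated 15-mer peptide captured on Neutravidin-coated plates, in 20 mM HEPES pH 7.2 with 0.2 μM ATP, 1 mM MnCl2, 0.1% BSA and 2.5% DMSO. Reaction ran 20 min at room temperature; phosphopeptide was detected by time-resolved fluorescence with Eu-N1-labelled PY100 antibody.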

Setting [1] is: ALK kinase inhibition, 1 μM ATP.
Setting [2] is: JAK2 kinase inhibition, 0.2 μM ATP.

T1 sequence (Q9UM73 19-1620): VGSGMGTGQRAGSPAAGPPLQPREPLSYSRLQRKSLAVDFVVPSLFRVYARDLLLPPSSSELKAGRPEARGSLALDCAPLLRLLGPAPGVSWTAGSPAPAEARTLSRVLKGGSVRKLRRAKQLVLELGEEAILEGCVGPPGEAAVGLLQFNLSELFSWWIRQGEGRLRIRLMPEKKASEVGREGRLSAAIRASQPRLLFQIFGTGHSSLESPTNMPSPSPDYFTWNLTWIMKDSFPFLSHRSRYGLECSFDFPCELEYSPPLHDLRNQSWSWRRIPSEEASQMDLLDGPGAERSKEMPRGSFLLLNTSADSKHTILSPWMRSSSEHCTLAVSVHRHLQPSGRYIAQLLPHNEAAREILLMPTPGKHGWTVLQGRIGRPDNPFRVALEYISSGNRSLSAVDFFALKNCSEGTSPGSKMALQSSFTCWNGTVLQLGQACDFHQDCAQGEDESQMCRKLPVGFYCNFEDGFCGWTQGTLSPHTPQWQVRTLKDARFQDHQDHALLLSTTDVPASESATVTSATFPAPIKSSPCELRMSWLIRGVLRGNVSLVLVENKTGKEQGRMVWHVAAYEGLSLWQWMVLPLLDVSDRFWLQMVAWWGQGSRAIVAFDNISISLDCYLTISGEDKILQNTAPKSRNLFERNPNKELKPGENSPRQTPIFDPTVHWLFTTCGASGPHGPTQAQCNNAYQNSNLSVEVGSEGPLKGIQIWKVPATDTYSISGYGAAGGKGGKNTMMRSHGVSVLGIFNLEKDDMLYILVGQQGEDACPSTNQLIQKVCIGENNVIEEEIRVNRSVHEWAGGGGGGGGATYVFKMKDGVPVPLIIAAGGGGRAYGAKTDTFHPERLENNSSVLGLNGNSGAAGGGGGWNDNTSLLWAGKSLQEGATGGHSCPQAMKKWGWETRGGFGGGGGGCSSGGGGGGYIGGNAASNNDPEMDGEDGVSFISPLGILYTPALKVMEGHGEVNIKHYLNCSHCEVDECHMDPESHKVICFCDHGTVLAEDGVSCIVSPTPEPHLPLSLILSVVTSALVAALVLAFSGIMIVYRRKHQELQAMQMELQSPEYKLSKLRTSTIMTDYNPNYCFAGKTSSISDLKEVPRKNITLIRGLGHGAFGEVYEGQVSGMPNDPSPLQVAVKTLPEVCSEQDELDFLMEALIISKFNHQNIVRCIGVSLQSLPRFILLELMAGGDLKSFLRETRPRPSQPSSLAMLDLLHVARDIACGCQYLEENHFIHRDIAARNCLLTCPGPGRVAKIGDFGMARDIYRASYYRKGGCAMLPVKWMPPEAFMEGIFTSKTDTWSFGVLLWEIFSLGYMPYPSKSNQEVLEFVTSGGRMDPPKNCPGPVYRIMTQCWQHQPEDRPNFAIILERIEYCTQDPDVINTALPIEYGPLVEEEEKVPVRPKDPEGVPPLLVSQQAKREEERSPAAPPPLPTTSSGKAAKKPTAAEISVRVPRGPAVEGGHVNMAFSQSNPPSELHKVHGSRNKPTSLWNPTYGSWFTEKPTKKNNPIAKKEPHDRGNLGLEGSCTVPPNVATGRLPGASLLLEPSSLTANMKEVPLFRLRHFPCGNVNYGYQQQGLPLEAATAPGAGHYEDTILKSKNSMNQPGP

As to `COc1ccccc1-c1ccc2cnc(Nc3ccc4c(c3)NC(=O)CC4)nn12` [Example 981, 7-[7-(2-Methoxy-phenyl)-pyrrolo[2,1-f][1,2,4]triazin-2-ylamino]-3,4-dihydro-1H-quinolin-2-one], the IC50 at ALK (setting [1]) is 100 to 1000 nM; at JAK2 (setting [2]), below 100 nM.
In the case of `COc1cc(N2CCC[C@H](CN3CCN(C)CC3)C2)ccc1Nc1ncc2ccc(-c3ccccc3OC)n2n1` [Example 466, {2-Methoxy-4-[(R)-3-(4-methyl-piperazin-1-ylmethyl)-piperidin-1-yl]-phenyl}-[7-(2-methoxy-phenyl)-pyrrolo[2,1-f][1,2,4]triazin-2-yl]-amine], the IC50 on ALK (ALK Kinase Inhibition) is below 100 nM; on JAK2 (JAK2 Kinase Inhibition), 100 to 1000 nM.
For `COc1ccc(-c2ccc3cnc(Nc4ccc(C5CN(CC(N)=O)C5)cc4)nn23)cn1` [Example 584, 2-(3-{4-[7-(6-Methoxy-pyridin-3-yl)-pyrrolo[2,1-f][1,2,4]triazin-2-ylamino]-phenyl}-azetidin-1-yl)-acetamide], the IC50 on ALK (setting [1]) is 100 to 1000 nM; at JAK2 (setting [2]), below 100 nM.
Regarding `COc1ccccc1-c1ccc2cnc(Nc3cc[nH]n3)nn12` [Example 122, [7-(2-Methoxy-phenyl)-pyrrolo[2,1-f][1,2,4]triazin-2-yl]-(1H-pyrazol-3-yl)-amine], the values for the IC50 at ALK (ALK Kinase Inhibition) and on JAK2 (JAK2 Kinase Inhibition) were 100 to 1000 nM and below 100 nM, respectively.
With `COc1cc(CN2C[C@@H](O)[C@H](O)C2)ccc1Nc1ncc2ccc(-c3ccccc3OC)n2n1` [Example 1237, (3R,4R)-1-{3-Methoxy-4-[7-(2-methoxy-phenyl)-pyrrolo[2,1-f][1,2,4]triazin-2-ylamino]-benzyl}-pyrrolidine-3,4-diol], the IC50 at ALK (setting [1]) was below 100 nM; at JAK2 (setting [2]), 100 to 1000 nM.
As for `CN1CCN(c2ccc(Nc3ncc4ccc(-c5cccc(C(=O)N6CCCC6)c5)n4n3)cc2)CC1` [Example 21, (3-{2-[4-(4-Methyl-piperazin-1-yl)-phenylamino]-pyrrolo[2,1-f][1,2,4]triazin-7-yl}-phenyl)-pyrrolidin-1-yl-methanone], the IC50 at ALK (ALK Kinase Inhibition) was 100 to 1000 nM; at JAK2 (JAK2 Kinase Inhibition), below 100 nM.
Turning to `Cc1cc2[nH]c(=O)oc2cc1Nc1ncc2ccc(-c3ccccc3N(C)S(C)(=O)=O)n2n1` [Example 1492, N-Methyl-N-{2-[2-(5-methyl-2-oxo-2,3-dihydro-benzoxazol-6-ylamino)-pyrrolo[2,1-f][1,2,4]triazin-7-yl]-phenyl}-methanesulfonamide], the IC50 on ALK (ALK Kinase Inhibition) and at JAK2 (JAK2 Kinase Inhibition) was 100 to 1000 nM each time.
As for `COc1cc(N2CCC(C)(N3CCOCC3)CC2)ccc1Nc1ncc2ccc(-c3ccccc3N(C)S(C)(=O)=O)n2n1` [Example 1468, N-(2-{2-[2-Methoxy-4-(4-methyl-4-morpholin-4-yl-piperidin-1-yl)-phenylamino]-pyrrolo[2,1-f][1,2,4]triazin-7-yl}-phenyl)-N-methyl-methanesulfonamide], the figures for the IC50 at ALK (ALK Kinase Inhibition) and at JAK2 (JAK2 Kinase Inhibition) were below 100 nM and 100 to 1000 nM, respectively.
Turning to `CC(=O)Nc1cccc(Nc2ncc3ccc(-c4ccccc4NS(C)(=O)=O)n3n2)c1` [Example 1382, N-{3-[7-(2-Methanesulfonylamino-phenyl)-pyrrolo[2,1-f][1,2,4]triazin-2-ylamino]-phenyl}-acetamide], the IC50 was 1000 to 10000 nM at ALK (ALK Kinase Inhibition) and below 100 nM on JAK2 (JAK2 Kinase Inhibition).
Turning to `c1cc(N2CCOCC2)ccc1Nc1ncc2ccc(C3CCCCC3)n2n1` [Example 127, (7-Cyclohexyl-pyrrolo[2,1-f][1,2,4]triazin-2-yl)-(4-morpholin-4-yl-phenyl)-amine], the IC50 at ALK (ALK Kinase Inhibition) is above 10000 nM; at JAK2 (JAK2 Kinase Inhibition), below 100 nM.
Turning to `COc1ncccc1-c1ccc2cnc(Nc3ccc(N4CCOCC4)cc3)nn12` [Example 16, [7-(2-Methoxy-pyridin-3-yl)-pyrrolo[2,1-f][1,2,4]triazin-2-yl]-(4-morpholin-4-yl-phenyl)-amine], the IC50 on ALK (ALK Kinase Inhibition) was 100 to 1000 nM; on JAK2 (JAK2 Kinase Inhibition) it was below 100 nM.
On to “N-{2-[2-(3,3-Dimethyl-2-oxo-2,3-dihydro-1H-indol-6-ylmethyl)-pyrrolo[2,1-f][1,2,4]triazin-7-yl]-phenyl}-N-methyl-methanesulfonamide [Example 661]”, for which the IC50 on ALK (setting [1]) was 100 to 1000 nM; at JAK2 (setting [2]), below 100 nM.
As for `CN1CCOCc2cc(Nc3ncc4ccc(-c5cccc(NS(C)(=O)=O)c5)n4n3)ccc21` [Example 619, N-{3-[2-(1-Methyl-1,2,3,5-tetrahydro-benzo[e][1,4]oxazepin-7-ylamino)-pyrrolo[2,1-f][1,2,4]triazin-7-yl]-phenyl}-methanesulfonamide], the IC50 at ALK (setting [1]) is 100 to 1000 nM; on JAK2 (setting [2]), below 100 nM.
For the compound `COc1cc(C2CCN(CC(=O)OC(C)(C)C)CC2)ccc1Nc1ncc2ccc(-c3ccccc3OC)n2n1` [Example 1277, (4-{3-Methoxy-4-[7-(2-methoxy-phenyl)-pyrrolo[2,1-f][1,2,4]triazin-2-ylamino]-phenyl}-piperidin-1-yl)-acetic acid tert-butyl ester], the figures for the IC50 on ALK (setting [1]) and on JAK2 (setting [2]) were 100 to 1000 nM and 1000 to 10000 nM, respectively.
For the compound `CN1CCN(c2ccc(Nc3ncc4ccc(-c5cccc(N6CCN(C(=O)OC(C)(C)C)CC6)c5)n4n3)cc2)CC1` [Example 1166, 4-(3-{2-[4-(4-Methyl-piperazin-1-yl)-phenylamino]-pyrrolo[2,1-f][1,2,4]triazin-7-yl}-phenyl)-piperazine-1-carboxylic acid tert-butyl ester], the IC50 on ALK (setting [1]) is 1000 to 10000 nM; at JAK2 (setting [2]) it was below 100 nM.
`COc1cc(C(=O)N2CCN(C)CC2)ccc1Nc1ncc2ccc(-c3ccccc3OC)n2n1` [Example 489, {3-Methoxy-4-[7-(2-methoxy-phenyl)-pyrrolo[2,1-f][1,2,4]triazin-2-ylamino]-phenyl}-(4-methyl-piperazin-1-yl)-methanone]: the IC50 on ALK (setting [1]) and on JAK2 (setting [2]) was 100 to 1000 nM each time.
In the case of `CN(c1ccccc1-c1ccc2cnc(Nc3ccc(CN4CCCC4)cc3)nn12)S(C)(=O)=O` [Example 1428, N-Methyl-N-{2-[2-(4-pyrrolidin-1-ylmethyl-phenylamino)-pyrrolo[2,1-f][1,2,4]triazin-7-yl]-phenyl}-methane sulfonamide], the IC50 is 100 to 1000 nM on ALK (ALK Kinase Inhibition) and below 100 nM on JAK2 (JAK2 Kinase Inhibition).
In the case of `CC(C)(C)NS(=O)(=O)c1cccc(-c2ccc3cnc(Nc4ccc5nc(CN6CCOCC6)[nH]c5c4)nn23)c1` [Example 1514, N-tert-Butyl-3-[2-(2-morpholin-4-ylmethyl-3H-benzimidazol-5-ylamino)-pyrrolo[2,1-f][1,2,4]triazin-7-yl]-benzenesulfonamide], the results for the IC50 on ALK (ALK Kinase Inhibition) and on JAK2 (JAK2 Kinase Inhibition) were 100 to 1000 nM and below 100 nM, respectively.
As for `COc1ccccc1-c1ccc2cnc(Nc3ccc4c(c3)OCO4)nn12` [Example 149, 1,3-Benzodioxol-5-yl-[7-(2-methoxy-phenyl)-pyrrolo[2,1-f][1,2,4]triazin-2-yl]-amine], the IC50 was 100 to 1000 nM on ALK (ALK Kinase Inhibition) and below 100 nM at JAK2 (JAK2 Kinase Inhibition).
Turning to `COc1ccccc1-c1ccc2cnc(-c3nc4cc(N5CCN(C)CC5)ccc4[nH]3)nn12` [Example 1505, 7-(2-Methoxy-phenyl)-2-[5-(4-methyl-piperazin-1-yl)-1H-benzimidazol-2-yl]-pyrrolo[2,1-f][1,2,4]triazine], the IC50 on ALK (ALK Kinase Inhibition) and at JAK2 (JAK2 Kinase Inhibition) was 1000 to 10000 nM throughout.
“N-{2-[2-(4-{4-[1-(2-Hydroxy-ethyl)-piperidin-4-yl]-[1,4]diazepan-1-yl}-2-methoxy-phenylamino)-pyrrolo[2,1-f][1,2,4]triazin-7-yl]-phenyl}-N-methyl-methanesulfonamide [Example 802]”: the IC50 at ALK (setting [1]) was below 100 nM; on JAK2 (setting [2]), 1000 to 10000 nM.
Consider `COc1c(Nc2ncc3ccc(-c4ccccc4N(C)S(C)(=O)=O)n3n2)cccc1C(=O)N1CCN(CCO)CC1` [Example 1232, N-[2-(2-{3-[4-(2-Hydroxy-ethyl)-piperazine-1-carbonyl]-2-methoxy-phenylamino}-pyrrolo[2,1-f][1,2,4]triazin-7-yl)-phenyl]-N-methyl-methanesulfonamide], for which the IC50 was 100 to 1000 nM on ALK (setting [1]) and above 10000 nM at JAK2 (setting [2]).
For `OC[C@@H](O)CN1CCC(c2ccc(Nc3ncc4ccc(-c5cccc(Cl)c5)n4n3)cc2)CC1` [Example 1130, (S)-3-(4-{4-[7-(3-Chloro-phenyl)-pyrrolo[2,1-f][1,2,4]triazin-2-ylamino]-phenyl}-piperidin-1-yl)-propane-1,2-diol], the IC50 at ALK (setting [1]) and on JAK2 (setting [2]) was below 100 nM each time.
Consider `COc1cccc(Nc2ncc3ccc(-c4cccc(S(=O)(=O)NC(C)(C)C)c4)n3n2)c1` [Example 1396, N-tert-Butyl-3-[2-(3-methoxy-phenylamino)-pyrrolo[2,1-f][1,2,4]triazin-7-yl]-benzenesulfonamide], for which the values for the IC50 at ALK (ALK Kinase Inhibition) and on JAK2 (JAK2 Kinase Inhibition) were 1000 to 10000 nM and below 100 nM, respectively.
In the same order, the values of `CN1CCN(c2ccc(Nc3ncc4ccc(-c5ccccc5Cl)n4n3)cc2)CC1` [Example 25, [7-(2-Chloro-phenyl)-pyrrolo[2,1-f][1,2,4]triazin-2-yl]-[4-(4-methyl-piperazin-1-yl)-phenyl]-amine] are below 100 nM and below 100 nM.
Take `COc1ccc(-c2ccc3cnc(Nc4ccc(C5CCN(CC(N)=O)CC5)cc4)nn23)cn1` [Example 1413, 2-(4-{4-[7-(6-Methoxy-pyridin-3-yl)-pyrrolo[2,1-f][1,2,4]triazin-2-ylamino]-phenyl}-piperidin-1-yl)-acetamide]: the IC50 on ALK (ALK Kinase Inhibition) is 100 to 1000 nM; on JAK2 (JAK2 Kinase Inhibition) it was below 100 nM.
In the same order, the values of `COc1ccc2c(c1)cc1cnc(Nc3ccc(N4CCOCC4)cc3)nn12` [Example 268, (7-Methoxy-[1,2,4]triazino[1,6-a]indol-2-yl)-(4-morpholin-4-yl-phenyl)-amine] are above 10000 nM and below 100 nM.
